Measured values reported in patent publication US10617677B2, “Nuclear transport modulators and uses thereof” (Biogen MA Inc., priority 2012, dated 2020).
Entries after “also recorded” stand apart in the source; their conditions may differ.

Legend:
skin wounds = test: Longitudinal full thickness skin incision wound model in C57BL mice; format: in vivo
From the text: The effects of Compound 1 on skin wound healing were studied in a mouse longitudinal full thickness skin incision wound model. Upon arrival, animals were identified by ear tags, weighed and left to acclimate for several days before initiation of the experiment. On the day of wounding, mice were weighed and divided into 6 experimental groups with 6 animals per group, in accordance to weight differences stratified randomization. Prior to the surgical procedure, mice were anesthetized with isoflurane and the back of the animals was trimmed. Full thickness longitudinal incisions of 20 mm were performed using a standard scalpel blade on the backs of the animals (parallel to the backbone). […] At this stage, the widest area of the wound was measured to establish a baseline wound width. […] At the end of the experiment, 8 days post wounding, mice were sacrificed, wound widths were measured and biopsies of the wound area were collected and subjected to analysis. […]
As a part of a daily morphological assessment, photo-documentation was performed using a digital camera FinePix S700. […] When evaluated on the same day as treatment groups, control group wounds appeared larger in size and were covered with thick cracked scabs that exposed a non-healed wound area (observed as reddish and pink areas) both at the edges and in the middle of the wounds. […]

diet-induced obesity = test: Diet-induced obesity (DIO) model in Sprague-Dawley rats; format: in vivo
Method: Male Sprague-Dawley rats of age 2 months were placed on a high fat diet (Research Diets Inc., product code D12492, 60% kcal % fat) for 3 months. A group of age-matched rats were fed normal lab chow (LabDiet 5001, ˜13% kcal % fat), these animals served as controls for DIO group.
At age 4 months, and 2 months into placement of high fat diet, all rats were allocated into 3 groups of N=7 based on equivalent body weights and food intakes. Body weights and food and water intakes were measured at approximately the same time each day. On treatment days, dosing was at approximately 2 hours before lights off.
The DIO control group was treated with vehicle (oral, 10 mL/kg dose volume; 0.5% Pluronic F68 and 0.5% PVP K29/32 in water) on each weekday. The Compound 2 1.5 mg/kg group was orally treated on each weekday throughout the treatment phase (dose 10 mL/kg dose volume; 0.5% Pluronic F68 and 0.5% PVP K29/32 in water). The Compound 2 3 mg/kg group (10 mL/kg dose volume; 0.5% Pluronic F68 and 0.5% PVP K29/32 in water) was orally treated initially once daily on each weekday for week 1, then twice weekly (Monday, Wednesday) for week 2. During treatment weeks 3 and 4, Compound 2 3 mg/kg treatment continued twice weekly, except dosing was on Monday and Thursday.
Prior to the treatment phase, 3 days baseline data were collected. The treatment phase was for 4 weeks. A washout phase of 10 days was also included.
Compound 2 was supplied in powder form. […] Active percentage was adjusted using BEW of 1.437 and prepared by dissolving into 0.5% w/v Pluronic F-68 and 0.5% w/v PVP K-29-32 vehicle solution. The vehicle solution was prepared on a weekly basis while Compound 2 was prepared fresh every 2 days and stored at +4° C. Animals were dosed at a volume of 10 mL/kg. Individual doses were calculated based on the most recent body weights to provide the proper mg/kg/day dosage.

[1] = 1.5-3 mg/kg oral, 28 day treatment period

| SMILES | wound healing, morphological assessment (skin wounds; 4 or 7.5 mg/kg PO every other day, or 1 or 2.5 μM topical daily, Day 5 post-wounding) | incidence of tampering with wounds compared to vehicle treated mice (skin wounds; Compound 1 in PVP/Pluronic F-68 or Compound 1 in water) | body weight compared to DIO control group (diet-induced obesity; [1]) | daily food intake compared to DIO control group (diet-induced obesity; [1]) | water intake (diet-induced obesity; [1]) | body weight gain (percentage of body weight change from study day 3) compared to DIO controls (diet-induced obesity; 1.5 and 3 mg/kg, treatment days 7 and 14) | body weight compared to DIO controls (diet-induced obesity; washout phase) |
| --- | --- | --- | --- | --- | --- | --- | --- |
| CC(C)(C)C(=O)NNC(=O)/C=C\n1cnc(-c2cc(C(F)(F)F)cc(C(F)(F)F)c2)n1 [Compound 1, (Z)-3-(3-(3,5-bis(trifluoromethyl)phenyl)-1H-1,2,4-triazol-1-yl)-N′-pivaloylacrylohydrazide] | positive effect; also recorded: better wound healing | reduced the incidence of tampering with wounds; also recorded: prevented tampering with wounds |  |  |  |  |  |
| O=C(/C=C\n1cnc(-c2cc(C(F)(F)F)cc(C(F)(F)F)c2)n1)NNC(=O)CN1CCOCC1 [Compound 2, (Z)-3-(3-(3,5-bis(trifluoromethyl)phenyl)-1H-1,2,4-triazol-1-yl)-N′-(2-morpholinoacetyl)acrylohydrazide] |  |  | dose-related decrease | dose-related decrease; also recorded: decreases daily food intake in a dose dependent manner | significantly increased water intake | significant reduction in weight gain; also recorded: affects body weight gain at both 1.5 and 3 mg/kg doses | remained lower than DIO controls |
